Row | melting point | SMILES
1 | 174 to 176 °C | Nc1cc(F)ccc1N1C(=O)C2CCCCC2C1=O (centres undefined)
2 | 140 to 142 °C | CC(C)(C)OC(=O)NC(C)(C(=O)O)C1CC1 (centres undefined)
3 | 143 to 145 °C | CCC(CC)(Cc1nc2ccccc2s1)C(=O)O
4 | 246 to 248 °C | O=C1NC(=O)C2(CC(C(=O)O)C2)N1 (centres undefined)
5 | 139 to 141 °C | Nc1c(Cl)ncnc1NC1CC1
6 | 232 to 234 °C | CN(C)S(=O)(=O)c1ccc2[nH]c(CO)nc2c1
7 | 47 to 49 °C | O=C(CNC1CC1)NC1CC1
8 | 219 to 221 °C | O=C1NCCCc2cc(O)ccc21
9 | 107 to 109 °C | O=C(O)CCNC(=O)C1CC1
10 | 79 to 81 °C | OC1COc2ccc(Br)cc21 (centres undefined)
11 | 132 to 134 °C | Nc1ccc(S(=O)(=O)Nc2cccc(Cl)c2)cc1
12 | 112 to 114 °C | Cc1nc(-c2ccc(N)cc2)co1
13 | 146 to 148 °C | O=C(O)C1(c2cccs2)CCCCC1
14 | 129 to 131 °C | O=C(O)c1ccccc1NCCC1=CCCCC1
15 | 96 to 98 °C | COC1(C(=O)O)CCN(C(=O)OC(C)(C)C)CC1
16 | 48 to 50 °C | NCCCNc1ccc(C(F)(F)F)cn1
17 | 125 to 127 °C | COC(=O)c1ccccc1-n1ncc(Cl)c(Cl)c1=O
18 | 237 to 239 °C | O=C(O)c1cnn(-c2ccc(Cl)cc2)c1
19 | 111 to 113 °C | O=S(=O)(Cl)c1scc(Br)c1Br
20 | 133 to 135 °C | N#Cc1cccc(NC(=O)OCC(F)(F)F)c1
21 | 61 to 63 °C | COc1ccc(C(=O)c2ccccc2Cl)c(OC)c1
22 | 214 to 216 °C | N#CCOc1ccc(/C=C/C(=O)O)cc1
23 | 73 to 75 °C | CC(CC(=O)O)C(=O)c1ccc(Cl)cc1 (centres undefined)
24 | 164 to 166 °C | O=C(O)c1cc2cc(Br)sc2[nH]1

Row | melting point | SMILES
25 | 122 to 124 °C | CCCCCCOc1ccc(C(=O)O)cc1OC
26 | 179 to 181 °C | O=C(O)CC1=NN(c2ccc(Cl)cc2Cl)C(=O)C1
27 | 72 to 74 °C | Cc1ccc(C2CCCCC2O)cc1 (centres undefined)
28 | 246 to 248 °C | O=C(O)Cc1ccc(NC(=O)c2cccc(Br)c2)cc1
29 | 69 to 71 °C | CN(C)C(=O)c1cccnc1Cl
30 | 97 to 99 °C | COC(=O)c1cc(S(N)(=O)=O)ccc1F
31 | 73 to 75 °C | COc1cccc(NC(=O)CCl)c1
32 | 94 to 96 °C | COc1ccc2c(c1)OCC2CC(=O)O (centres undefined)
33 | 99 to 101 °C | Cc1cnn(-c2ccc(S(=O)(=O)Cl)cc2F)c1
34 | 249 to 251 °C | Cc1cc(CNCc2cc(C)c(O)c(C)c2)cc(C)c1O
35 | 150 to 152 °C | NS(=O)(=O)c1ccc(CNC(=O)OCC(F)(F)F)cc1
36 | 284 to 286 °C | N#CCc1nc2scc(C3CC3)c2c(=O)[nH]1
37 | 101 to 103 °C | CN(CC(=O)O)C(=O)c1cccs1
38 | 131 to 133 °C | Cc1oc(C)c(C(=O)O)c1C
39 | 174 to 176 °C | Nc1nc(CCl)nc2sc3c(c12)CCCC3
40 | 218 to 221 °C | O=C(O)CNC(=O)/C=C/c1ccco1
41 | 125 to 127 °C | Nc1cccc(NC(=O)CCn2ccnc2)c1
42 | 157 to 159 °C | COC(=O)c1cnc(NC2CC2)s1
43 | 76 to 78 °C | Cc1noc(COCC(=O)O)n1
44 | 107 to 109 °C | N#Cc1ccc(Cn2cncn2)c(F)c1
45 | 152 to 154 °C | CSc1nc(C)cc(C(=O)O)n1
46 | 209 to 211 °C | COC(=O)c1c[nH]c(=O)c(N)c1
47 | 167 to 169 °C | Cc1cc(NC(=O)OC(C)(C)C)ccn1
48 | 105 to 107 °C | O=C(O)C1(c2ccccc2)CCC1

Row | melting point | SMILES
49 | 175 to 177 °C | O=C(O)c1ccc(Oc2ccc(Br)cc2)nc1
50 | 169 to 172 °C | C=CCc1ccc(OCC(=O)O)c(OC)c1
51 | 64 to 66 °C | CC(C)(C(=O)O)C1CCCCC1
52 | 142 to 144 °C | Cc1nn(-c2ccc(C(F)(F)F)cn2)c(C)c1CC(=O)O
53 | 124 to 126 °C | CC(=O)NC1CNc2ccccc2C1 (centres undefined)
54 | 89 to 91 °C | COc1cc(C=O)ccc1[N+](=O)[O-]
55 | 80 to 82 °C | C=CCc1cc(C=O)cc(OC)c1O
56 | 98 to 100 °C | CC(C)(C)OC(=O)N1CCC(CC(=O)O)CC1
57 | 110 to 112 °C | O=C1NCCOc2ccccc21
58 | 243 to 245 °C | Nc1nc(-c2cc3ccccc3o2)cs1
59 | 142 to 144 °C | O=C(O)CCNS(=O)(=O)c1ccccc1C(F)(F)F
60 | 261 to 263 °C | O=C(O)CNc1nccs1
61 | 256 to 258 °C | CN(C)c1ncnc2nc[nH]c12
62 | 202 to 204 °C | Nc1nc2c(Br)cc(OC(F)(F)F)cc2s1
63 | 94 to 96 °C | O=C(O)C1CC1c1ccccc1OC(F)(F)F (centres undefined)
64 | 175 to 177 °C | Nc1nncc(-c2cc(Cl)ccc2Cl)n1
65 | 275 to 277 °C | CS(=O)(=O)Nc1cc(C(=O)O)ccc1Cl
66 | 183 to 185 °C | Cc1nnc(N)o1
67 | 125 to 127 °C | CC(=O)c1ccc(OCC(=O)N(C)C)cc1
68 | 61 to 63 °C | NCc1cn(-c2ccccc2)nc1-c1ccccc1
69 | 149 to 151 °C | CC(O)c1nc2ccc(Cl)cc2n1C (centres undefined)
70 | 238 to 240 °C | CC(C)N1C(=O)c2ccc(C(=O)O)cc2S1(=O)=O
71 | 70 to 72 °C | O=C(CBr)c1ccc(S(=O)(=O)N2CCCCCC2)cc1
72 | 178 to 180 °C | CC1CCc2c(C(=O)O)csc2C1 (centres undefined)

Row | melting point | SMILES
73 | 196 to 198 °C | Nc1cc(Cl)cc(C(=O)O)c1F
74 | 73 to 75 °C | OCc1ncc(Br)s1
75 | 134 to 136 °C | COc1cc(C(C)=O)ccc1SCC(=O)O
76 | 117 to 119 °C | O=C(O)CCCS(=O)(=O)c1ccc(Br)cc1
77 | 127 to 129 °C | COc1cc(C=O)ccc1OCC(=O)c1ccccc1
78 | 172 to 174 °C | COc1ccc(S(=O)(=O)Nc2nccs2)cc1
79 | 56 to 58 °C | OC1(Cc2ccccc2)CCCC1
80 | 171 to 173 °C | Cc1sc(=O)[nH]c1-c1ccccc1
81 | 153 to 155 °C | Cc1nc2scc(C)n2c1C=O
82 | 99 to 101 °C | CC(C)n1ncc(C(=O)O)c1C1CC1
83 | 67 to 69 °C | N#Cc1ccc(S(=O)(=O)Cl)cn1
84 | 225 to 227 °C | CSc1ccc(C(=O)O)cc1[N+](=O)[O-]
85 | 149 to 151 °C | COc1cccc(OC)c1CC(=O)O
86 | 297 to 299 °C | CS(=O)(=O)c1ccc(-c2nnc(N)o2)cc1
87 | 137 to 139 °C | CC1(c2cccs2)NC(=O)NC1=O (centres undefined)
88 | 211 to 213 °C | O=C1CC(C(=O)O)c2ccccc2N1 (centres undefined)
89 | 199 to 201 °C | O=C(O)c1ccc(-c2cnccn2)cn1
90 | 196 to 198 °C | O=C(O)c1ccc(NCCO)cc1
91 | 215 to 217 °C | O=C(O)c1cc(Cl)nc(N2CCCC2)c1
92 | 194 to 196 °C | O=C(c1cn[nH]c1)N1CCN(c2ccccn2)CC1
93 | 247 to 249 °C | O=C(O)c1csc(-c2ccc(Cl)s2)n1
94 | 53 to 55 °C | Cc1cccc(C)c1NC(=O)CN1CCNCC1
95 | 199 to 201 °C | O=C(O)c1ccccc1COc1ccccc1C(=O)O
96 | 177 to 179 °C | ON=Cc1cccc(OCc2ccncc2)c1

Row | melting point | SMILES
97 | 176 to 178 °C | O=C(O)C1(c2ccc3c(c2)OCO3)CCCCC1
98 | 159 to 161 °C | CC(C)N(C(C)C)S(=O)(=O)c1ccc(NN)nc1
99 | 229 to 231 °C | NC(C(=O)O)c1cc(F)ccc1F (centres undefined)
100 | 76 to 78 °C | CC(C)(C)c1ccc(CC(=O)O)cc1
101 | 58 to 61 °C | N#CCCOc1ccccc1
102 | 179 to 181 °C | CN(c1cc(C(=O)O)ccn1)C1CCCC1
103 | 101 to 103 °C | CC1CCC(NS(=O)(=O)c2ccc(Cl)c([N+](=O)[O-])c2)CC1 (centres undefined)
104 | 190 to 192 °C | O=C1CN(c2ccccc2)C(=O)N1
105 | 104 to 106 °C | Nc1nc(SCc2ccccc2)ns1
106 | 147 to 149 °C | CNc1nc(C)cc(C)c1C#N
107 | 53 to 55 °C | CCCc1nc(N)sc1CC
108 | 99 to 101 °C | Cc1ccccc1-c1cc(N)on1
109 | 113 to 115 °C | CC1(C2CCCCC2)NC(=O)NC1=O (centres undefined)
110 | 34 to 36 °C | Fc1ncccc1OCc1ccccc1
111 | 250 to 252 °C | O=C(Nc1cc(Cl)ccc1C(=O)O)c1ccc(F)cc1
112 | 49 to 51 °C | Clc1nccc(OCc2ccccc2)n1
113 | 78 to 80 °C | O=C(O)C1CC1c1cccc(F)c1 (centres undefined)
114 | 97 to 99 °C | O=C1CCC(c2ccccc2)N1 (centres undefined)
115 | 98 to 102 °C | Nc1ccccc1N1CCCC1=O
116 | 277 to 279 °C | CCNC(C(=O)O)c1ccc(F)c(F)c1 (centres undefined)
117 | 192 to 196 °C | O=C1OC(C(O)CO)C(O)=C1O (centres undefined)
118 | 141 to 145 °C | O=C(O)c1nn(-c2ccccc2C(F)(F)F)cc1O
119 | 183 to 195 °C | COc1ccc2cc(/C=C/C(=O)O)ccc2c1
120 | 210 to 212 °C | N#Cc1n[nH]c2ccc(Cl)cc12

Row | melting point | SMILES
121 | 178 to 182 °C | COc1ccc(NS(=O)(=O)c2cc(N)ccc2N2CCCC2)cc1
122 | 266 to 268 °C | Nc1nnc(-c2cc3c(s2)CCCC3)o1
123 | 169 to 171 °C | O=S(=O)(Nc1nccs1)c1ccccc1
124 | 178 to 180 °C | c1ccc(CN2CCOC(c3nn[nH]n3)C2)cc1 (centres undefined)
125 | 73 to 75 °C | Clc1ccnc(C2=NCCO2)c1
126 | 108 to 110 °C | N#CC1=C(C(=O)O)CCC1
127 | 118 to 120 °C | O=C(CCl)NCc1ccccc1CS(=O)(=O)N1CCOCC1
128 | 207 to 209 °C | O=C(O)CS(=O)(=O)CC(=O)Nc1ccc(Br)cc1
129 | 69 to 71 °C | O=C(O)CC1CCSCC1
130 | 62 to 64 °C | COc1cc(C=O)cc(OC)c1OCc1ccccc1
131 | 127 to 129 °C | O=C1CCN(S(=O)(=O)c2cccs2)CC1
132 | 231 to 233 °C | O=C(O)C1CCCN(C(=O)c2c[nH]c3ccccc23)C1 (centres undefined)
133 | 199 to 201 °C | COc1ccc(-n2cnnc2S)cn1
134 | 186 to 188 °C | O=C(O)c1cn(-c2ccccc2)nc1-c1cccc2ccccc12
135 | 103 to 105 °C | COC(=O)Nc1ccc(CN)cc1
136 | 64 to 66 °C | O=C(O)CCCCc1ccc(Cl)cc1
137 | 70 to 72 °C | C#CCOc1ccccc1C=O
138 | 163 to 165 °C | Cc1c(C(=O)O)nnn1-c1ccc(Br)cc1Cl
139 | 109 to 111 °C | O=c1oc2ccc([N+](=O)[O-])cc2n1CCCBr
140 | 141 to 144 °C | NC(COc1ccc(Cl)cc1Cl)=NO
141 | 173 to 175 °C | O=C(NCCO)c1ccc([N+](=O)[O-])cc1Cl
142 | 110 to 112 °C | Cc1ccc(-c2csc(NCCCC(=O)O)n2)s1
143 | 208 to 210 °C | COc1cc(OC)c(N(C)S(=O)(=O)c2cccc(C(=O)O)c2)cc1Cl

Row | SMILES | melting point
144 | O=Cc1cnn(Cc2ccccc2)c1 | 43 to 45 °C
